{
  "source": "ChEMBL document CHEMBL1143993",
  "about": "“Synthesis and structure-activity relationships of a series of substituted 2-(1H-furo[2,3-g]indazol-1-yl)ethylamine derivatives as 5-HT2C receptor agonists” (Bioorg Med Chem, 2008)",
  "key": {"[1]": {"species": "Homo sapiens", "experiment": "Selectivity ratio of EC50 for human cloned 5HT2B receptor over EC50 for human cloned 5HT2C receptor"}, "[2]": {"target": "T1, 5-hydroxytryptamine receptor 2A (Homo sapiens, UniProt P28223)", "T1 sequence (P28223 whole entry)": "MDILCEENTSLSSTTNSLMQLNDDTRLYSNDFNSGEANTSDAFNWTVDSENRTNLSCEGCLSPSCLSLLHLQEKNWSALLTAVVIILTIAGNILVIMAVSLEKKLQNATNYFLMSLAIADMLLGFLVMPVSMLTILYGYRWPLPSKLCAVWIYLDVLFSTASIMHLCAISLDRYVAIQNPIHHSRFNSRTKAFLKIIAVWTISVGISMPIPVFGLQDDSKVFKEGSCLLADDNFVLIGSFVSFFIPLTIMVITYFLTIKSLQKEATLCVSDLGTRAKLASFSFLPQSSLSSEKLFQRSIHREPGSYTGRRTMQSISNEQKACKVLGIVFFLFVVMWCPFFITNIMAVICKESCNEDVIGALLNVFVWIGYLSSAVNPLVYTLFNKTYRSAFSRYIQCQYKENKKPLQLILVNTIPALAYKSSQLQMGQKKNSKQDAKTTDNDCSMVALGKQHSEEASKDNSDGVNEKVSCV", "experiment": "Displacement of [3H]5-HT from human 5HT2A receptor expressed in CHO cells", "format": "cell-based"}, "[3]": {"target": "Serotonin 2 receptors; 5-HT2a & 5-HT2c (Homo sapiens) (UniProt P28223+P28335)", "sequence (P28223 whole entry, looked up, one chain of several)": "as the sequence (P28223 whole entry) above", "experiment": "Selectivity for human 5HT2A to human 5HT2C"}, "[4]": {"system": "Rattus norvegicus", "experiment": "Induction of penile erection in sc dosed rat", "format": "functional", "details": "read-out: MED"}, "[5]": {"target": "T2, 5-hydroxytryptamine receptor 2B (Homo sapiens, UniProt P41595)", "T2 sequence (P41595 whole entry)": "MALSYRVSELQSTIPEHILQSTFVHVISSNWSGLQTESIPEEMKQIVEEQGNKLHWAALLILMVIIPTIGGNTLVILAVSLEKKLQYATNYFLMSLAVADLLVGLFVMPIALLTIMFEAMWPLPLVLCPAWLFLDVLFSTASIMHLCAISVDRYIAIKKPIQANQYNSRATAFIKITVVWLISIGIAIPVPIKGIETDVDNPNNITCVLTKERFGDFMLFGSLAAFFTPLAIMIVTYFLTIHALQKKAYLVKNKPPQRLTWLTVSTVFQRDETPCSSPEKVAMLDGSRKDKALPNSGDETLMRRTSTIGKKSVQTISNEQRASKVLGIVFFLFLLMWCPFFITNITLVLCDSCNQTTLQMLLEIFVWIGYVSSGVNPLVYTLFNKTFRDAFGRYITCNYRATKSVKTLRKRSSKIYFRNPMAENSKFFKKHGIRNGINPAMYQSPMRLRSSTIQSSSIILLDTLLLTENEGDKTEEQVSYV", "description": "Agonist activity at human cloned 5HT2B receptor expressed in HEK293-EBNA cells assessed as myo-[3H]inositol hydrolysis"}, "[6]": {"target": "T1, 5-hydroxytryptamine receptor 2A", "experiment": "Intrinsic activity at human cloned 5HT2A receptor expressed in CHO cells assessed as maximal stimulation of 10 uM 5HT-induced myo-[3H]inositol hydrolysis", "format": "functional, cell-based"}, "[7]": {"target": "T1, 5-hydroxytryptamine receptor 2A", "experiment": "Agonist activity at human cloned 5HT2A receptor expressed in CHO cells assessed as myo-[3H]inositol hydrolysis", "format": "functional, cell-based"}, "[8]": {"target": "T3, 5-hydroxytryptamine receptor 2C (Homo sapiens) (UniProt P28335)", "T3 sequence (whole entry)": "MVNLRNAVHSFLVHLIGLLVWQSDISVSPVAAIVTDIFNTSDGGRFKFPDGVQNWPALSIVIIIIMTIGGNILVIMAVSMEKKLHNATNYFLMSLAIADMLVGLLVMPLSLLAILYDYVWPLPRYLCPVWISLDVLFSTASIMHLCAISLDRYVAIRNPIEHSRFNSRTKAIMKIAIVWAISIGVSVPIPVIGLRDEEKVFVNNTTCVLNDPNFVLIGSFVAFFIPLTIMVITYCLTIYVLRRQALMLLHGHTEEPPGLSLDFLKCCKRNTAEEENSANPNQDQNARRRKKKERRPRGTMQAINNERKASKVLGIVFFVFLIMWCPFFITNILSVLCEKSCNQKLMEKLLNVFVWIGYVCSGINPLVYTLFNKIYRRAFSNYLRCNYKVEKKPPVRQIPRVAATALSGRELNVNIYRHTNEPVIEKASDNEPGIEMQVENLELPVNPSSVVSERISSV", "experiment": "Intrinsic activity at human cloned 5HT2C receptor expressed in CHO cells assessed as maximal stimulation of 10 uM 5HT-induced myo-[3H]inositol hydrolysis", "format": "functional, cell-based"}, "[9]": {"target": "T2, 5-hydroxytryptamine receptor 2B", "experiment": "Intrinsic activity at human cloned 5HT2B receptor expressed in HEK293-EBNA cells assessed as maximal stimulation of 10 uM 5HT-induced myo-[3H]inositol hydrolysis", "format": "functional, cell-based"}, "[10]": {"target": "T4, 5-hydroxytryptamine receptor 2C (Homo sapiens, UniProt P28335)", "T4 sequence (P28335 whole entry)": "T3 sequence (whole entry)", "experiment": "Agonist activity at human cloned 5HT2C receptor expressed in CHO cells assessed as myo-[3H]inositol hydrolysis", "format": "functional, cell-based"}, "[11]": {"target": "T4, 5-hydroxytryptamine receptor 2C", "experiment": "Displacement of [3H]5-HT from human 5HT2C receptor expressed in CHO cells", "format": "cell-based"}, "[12]": {"system": "Rattus norvegicus", "experiment": "Induction of penile erection in po dosed rat", "format": "functional", "details": "read-out: MED"}},
  "data": [
    {"molecule": "C[C@H](N)Cn1ccc2cc(F)c(Cl)cc21", "values": [
      {"measurement": "Ratio EC50", "setting": "[1]", "value": 0.05},
      {"measurement": "Ki", "setting": "[2]", "value": 39, "unit": "nM"},
      {"measurement": "Ratio Ki", "setting": "[3]", "value": 2},
      {"measurement": "minimal effective dose", "setting": "[4]", "value": 0.3, "unit": "mg/kg"},
      {"measurement": "EC50", "setting": "[5]", "value": 2.4, "unit": "nM"},
      {"measurement": "Emax", "setting": "[6]", "value": 91, "unit": "%"},
      {"measurement": "EC50", "setting": "[7]", "value": 400, "unit": "nM"},
      {"measurement": "Emax", "setting": "[8]", "value": 88, "unit": "%"},
      {"measurement": "Emax", "setting": "[9]", "value": 130, "unit": "%"},
      {"measurement": "EC50", "setting": "[10]", "value": 52, "unit": "nM"},
      {"measurement": "Ki", "setting": "[11]", "value": 26, "unit": "nM"}
    ]},
    {"molecule": "C[C@H](N)Cn1ncc2cc(F)ccc21", "values": [
      {"measurement": "Ki", "setting": "[2]", "value": 89, "unit": "nM"},
      {"measurement": "Ratio Ki", "setting": "[3]", "value": 2},
      {"measurement": "Ki", "setting": "[11]", "value": 43, "unit": "nM"}
    ]},
    {"molecule": "CCCc1nn(C[C@H](C)N)c2c1ccc1occc12", "values": [
      {"measurement": "Ki", "setting": "[2]", "value": 64, "unit": "nM"},
      {"measurement": "Ratio Ki", "setting": "[3]", "value": 3},
      {"measurement": "Ki", "setting": "[11]", "value": 25, "unit": "nM"}
    ]},
    {"molecule": "Cc1nn(C[C@H](C)N)c2c1ccc1occc12", "values": [
      {"measurement": "Ki", "setting": "[2]", "value": 17, "unit": "nM"},
      {"measurement": "Ratio Ki", "setting": "[3]", "value": 1},
      {"measurement": "Ki", "setting": "[11]", "value": 13, "unit": "nM"}
    ]},
    {"molecule": "COc1ccc2cnn(C[C@H](C)N)c2c1Cl", "values": [
      {"measurement": "Ki", "setting": "[2]", "value": 1200, "unit": "nM"},
      {"measurement": "Ratio Ki", "setting": "[3]", "value": 9},
      {"measurement": "Ki", "setting": "[11]", "value": 140, "unit": "nM"}
    ]},
    {"molecule": "Cc1cc2c(ccc3cnn(C[C@H](C)N)c32)o1", "values": [
      {"measurement": "Ki", "setting": "[2]", "value": 0.78, "unit": "nM"},
      {"measurement": "Ratio Ki", "setting": "[3]", "value": 4},
      {"measurement": "Ki", "setting": "[11]", "value": 0.2, "unit": "nM"}
    ]},
    {"molecule": "COc1ccc2cnn(C[C@H](C)N)c2c1", "values": [
      {"measurement": "Ki", "setting": "[2]", "value": 37, "unit": "nM"},
      {"measurement": "Ratio Ki", "setting": "[3]", "value": 2},
      {"measurement": "Ki", "setting": "[11]", "value": 16, "unit": "nM"}
    ]},
    {"molecule": "C[C@H](N)Cn1ncc2cc(Cl)c(Cl)cc21", "values": [
      {"measurement": "Ki", "setting": "[2]", "value": 11, "unit": "nM"},
      {"measurement": "Ratio Ki", "setting": "[3]", "value": 1},
      {"measurement": "Ki", "setting": "[11]", "value": 7.5, "unit": "nM"}
    ]},
    {"molecule": "CCc1cc2c(ccc3c(C)nn(C[C@H](C)N)c32)o1", "values": [
      {"measurement": "Ki", "setting": "[2]", "value": 46, "unit": "nM"},
      {"measurement": "Ratio Ki", "setting": "[3]", "value": 9},
      {"measurement": "Ki", "setting": "[11]", "value": 5, "unit": "nM"}
    ]},
    {"molecule": "CCc1nn(C[C@H](C)N)c2c1ccc1occc12", "values": [
      {"measurement": "Ki", "setting": "[2]", "value": 11, "unit": "nM"},
      {"measurement": "Ratio Ki", "setting": "[3]", "value": 4},
      {"measurement": "Ki", "setting": "[11]", "value": 2.5, "unit": "nM"}
    ]},
    {"molecule": "C[C@H](N)Cn1ncc2ccc(F)cc21", "values": [
      {"measurement": "Ki", "setting": "[2]", "value": 82, "unit": "nM"},
      {"measurement": "Ratio Ki", "setting": "[3]", "value": 3},
      {"measurement": "Ki", "setting": "[11]", "value": 32, "unit": "nM"}
    ]},
    {"molecule": "C[C@H](N)Cn1ncc2ccc3ocnc3c21", "values": [
      {"measurement": "Ki", "setting": "[2]", "value": 47, "unit": "nM"},
      {"measurement": "Ratio Ki", "setting": "[3]", "value": 1},
      {"measurement": "Ki", "setting": "[11]", "value": 59, "unit": "nM"}
    ]},
    {"molecule": "C[C@H](N)Cn1ncc2ccc3sccc3c21", "values": [
      {"measurement": "Ki", "setting": "[2]", "value": 6.7, "unit": "nM"},
      {"measurement": "Ratio Ki", "setting": "[3]", "value": 5},
      {"measurement": "Ki", "setting": "[11]", "value": 1.4, "unit": "nM"}
    ]},
    {"molecule": "C[C@H](N)Cn1ncc2ccc3occc3c21", "values": [
      {"measurement": "Ki", "setting": "[2]", "value": 0.78, "unit": "nM"},
      {"measurement": "Ratio Ki", "setting": "[3]", "value": 4},
      {"measurement": "Ki", "setting": "[11]", "value": 0.2, "unit": "nM"}
    ]},
    {"molecule": "COc1nn(C[C@H](C)N)c2c1ccc1occc12", "values": [
      {"measurement": "Ratio Ki", "setting": "[3]", "value": 17},
      {"measurement": "minimal effective dose", "setting": "[4]", "value": 0.1, "unit": "mg/kg"},
      {"measurement": "Ki", "setting": "[11]", "value": 0.51, "unit": "nM"}
    ]},
    {"molecule": "CCc1cc2c(ccc3c(CC)nn(C[C@H](C)N)c32)o1", "values": [
      {"measurement": "Ki", "setting": "[2]", "value": 51, "unit": "nM"},
      {"measurement": "Ratio Ki", "setting": "[3]", "value": 19},
      {"measurement": "Ki", "setting": "[11]", "value": 2.7, "unit": "nM"}
    ]},
    {"molecule": "CC(C)c1cc2c(ccc3cnn(C[C@H](C)N)c32)o1", "values": [
      {"measurement": "Ki", "setting": "[2]", "value": 87, "unit": "nM"},
      {"measurement": "Ratio Ki", "setting": "[3]", "value": 4},
      {"measurement": "Ki", "setting": "[11]", "value": 20, "unit": "nM"}
    ]},
    {"molecule": "CCc1cc2c(ccc3c(OC)nn(C[C@H](C)N)c32)o1", "values": [
      {"measurement": "Ki", "setting": "[2]", "value": 38, "unit": "nM"},
      {"measurement": "Ratio Ki", "setting": "[3]", "value": 3},
      {"measurement": "Ki", "setting": "[11]", "value": 12, "unit": "nM"}
    ]},
    {"molecule": "C[C@H](N)Cn1ncc2ccc(Cl)c(Cl)c21", "values": [
      {"measurement": "Ki", "setting": "[2]", "value": 9.1, "unit": "nM"},
      {"measurement": "Ratio Ki", "setting": "[3]", "value": 2},
      {"measurement": "Ki", "setting": "[11]", "value": 4, "unit": "nM"}
    ]},
    {"molecule": "CCc1cc2c(ccc3cnn(C[C@H](C)N)c32)o1", "values": [
      {"measurement": "Ratio EC50", "setting": "[1]", "value": 3.2},
      {"measurement": "Ki", "setting": "[2]", "value": 13, "unit": "nM"},
      {"measurement": "minimal effective dose", "setting": "[12]", "value": 0.3, "unit": "mg/kg"},
      {"measurement": "Ratio Ki", "setting": "[3]", "value": 15},
      {"measurement": "minimal effective dose", "setting": "[4]", "value": 0.03, "unit": "mg/kg"},
      {"measurement": "EC50", "setting": "[5]", "value": 3.2, "unit": "nM"},
      {"measurement": "Emax", "setting": "[6]", "value": 97, "unit": "%"},
      {"measurement": "EC50", "setting": "[7]", "value": 93, "unit": "nM"},
      {"measurement": "Emax", "setting": "[8]", "value": 76, "unit": "%"},
      {"measurement": "Emax", "setting": "[9]", "value": 110, "unit": "%"},
      {"measurement": "EC50", "setting": "[10]", "value": 1, "unit": "nM"},
      {"measurement": "Ki", "setting": "[11]", "value": 0.89, "unit": "nM"}
    ]}
  ]
}
